Source: patent publication US11051515B2, “3-acyl-benzamides and their use as herbicides” (Bayer Aktiengesellschaft, priority 2017, dated 2021)

Columns and labels:
VERPE = experiment: Pre-emergence action against VERPE; assay type: in vivo, Veronica persica; details: Dosage 320 g/ha, pre-emergence
Method in brief: (§1)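 Seeds sown in sandy loam in wood-fiber pots and covered with soil. Greenhouse growth; visual damage scored after 3 weeks versus untreated controls (100% = dead, 0% = like control).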

POLCO [1] = experiment: Pre-emergence action against POLCO; assay type: in vivo, Polygonum convolvulus; details: Dosage 320 g/ha, pre-emergence
Method in brief: as §1

ABUTH [2] = experiment: Pre-emergence action against ABUTH; assay type: in vivo, Abutilon theophrasti; details: pre-emergence, dosage 320 g/ha, scored visually after 3 weeks vs untreated controls
Method in brief: as §1

LOLRI = experiment: Pre-emergence action against LOLRI; assay type: in vivo, Lolium rigidum; details: dosage 320 g/ha, scored visually after 3 weeks vs untreated controls
From the text: (§2) Seeds of monocotyledonous and dicotyledonous weed plants and crop plants are laid out in sandy loam soil in wood-fiber pots and covered with soil. The compounds of the invention, formulated in the form of wettable powders (WP) or as emulsion concentrates (EC), are then applied to the surface of the covering soil in the form of an aqueous suspension or emulsion at a water application rate equating to […], with addition of 0.2% wetting agent. After the treatment, the pots are placed in a greenhouse and kept under good growth conditions for the trial plants. The damage to the test plants is scored visually after a test period of 3 weeks by comparison with untreated controls (herbicidal activity in percent (%): 100% activity=the plants have died, 0% activity=like control plants).

PHBPU [3] = experiment: Post-emergence action against PHBPU; assay type: in vivo, Pharbitis purpurea; details: post-emergence, dosage 80 g/ha
Method in brief: (§3)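 Weeds grown in sandy loam in greenhouse, treated at one-leaf stage (2–3 weeks after sowing) with WP or EC formulations sprayed as aqueous suspension/emulsion at 600 to […] water with 0.2% wetting agent. Visual rating after about 3 weeks versus untreated controls, as % herbicidal action (100% = plants dead, 0% = like control).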

POLCO [4] = experiment: Post-emergence action against POLCO; assay type: in vivo, Polygonum convolvulus; details: post-emergence, dosage 80 g/ha
Method in brief: as §3

ABUTH [5] = experiment: Post-emergence action against ABUTH; assay type: in vivo, Abutilon theophrasti; details: post-emergence, dosage 80 g/ha, visual assessment about 3 weeks after treatment vs untreated controls
Method in brief: as §3

AMARE [6] = experiment: Post-emergence action against AMARE; assay type: in vivo, Amaranthus retroflexus; details: post-emergence, dosage 80 g/ha, visual assessment about 3 weeks after treatment vs untreated controls
Method in brief: as §3

ECHCG [7] = experiment: Post-emergence action against ECHCG; assay type: in vivo, Echinochloa crus-galli; details: post-emergence, dosage 80 g/ha, visual assessment about 3 weeks after treatment vs untreated controls
Method in brief: as §3

STEME [8] = experiment: Post-emergence action against STEME; assay type: in vivo, Stellaria media; details: post-emergence, dosage 80 g/ha
Method in brief: as §3

AVEFA [9] = experiment: Pre-emergence action against AVEFA; assay type: in vivo, Avena fatua; details: dosage 320 g/ha, scored visually after 3 weeks vs untreated controls
Method in brief: as §1

VIOTR [10] = experiment: Pre-emergence action against VIOTR; assay type: in vivo, Viola tricolor; details: Dosage 320 g/ha, pre-emergence
Method in brief: as §1

ALOMY = experiment: Pre-emergence action against ALOMY; assay type: in vivo, Alopecurus myosuroides; details: dosage 320 g/ha; pre-emergence; scored visually after 3 weeks vs untreated controls; 100% = plants have died, 0% = like control plants
Method in brief: as §1

PHBPU [11] = experiment: Pre-emergence action against PHBPU; assay type: in vivo, Pharbitis purpurea; details: Dosage 320 g/ha, pre-emergence
Method in brief: as §1

ECHCG [12] = experiment: Pre-emergence action against ECHCG; assay type: in vivo, Echinochloa crus-galli; details: pre-emergence, dosage 320 g/ha, scored visually after 3 weeks vs untreated controls
Method in brief: as §1

VIOTR [13] = experiment: Post-emergence action against VIOTR; assay type: in vivo, Viola tricolor; details: post-emergence, dosage 80 g/ha
Method in brief: as §3

MATIN [14] = experiment: Post-emergence action against MATIN; assay type: in vivo, Matricaria inodora; details: post-emergence, dosage 80 g/ha, visual assessment about 3 weeks after treatment vs untreated controls
Method in brief: as §3

SETVI [15] = experiment: Post-emergence action against SETVI; assay type: in vivo, Setaria viridis; details: post-emergence, dosage 80 g/ha, visual assessment about 3 weeks after treatment vs untreated controls
Method in brief: as §3

HORMU = experiment: Pre-emergence action against HORMU; assay type: in vivo, Hordeum murinum; details: Dosage 320 g/ha
From the text: as §2

MATIN [16] = experiment: Pre-emergence action against MATIN; assay type: in vivo, Matricaria inodora; details: Dosage 320 g/ha, pre-emergence
Method in brief: as §1

SETVI [17] = experiment: Pre-emergence action against SETVI; assay type: in vivo, Setaria viridis; details: pre-emergence, dosage 320 g/ha, scored visually after 3 weeks vs untreated controls
Method in brief: as §1

CYPES [18] = experiment: Post-emergence action against CYPES; assay type: in vivo, Cyperus esculentus; details: post-emergence, dosage 80 g/ha, visual assessment about 3 weeks after treatment vs untreated controls
Method in brief: as §3

AMARE [19] = experiment: Pre-emergence action against AMARE; assay type: in vivo, Amaranthus retroflexus; details: pre-emergence, dosage 320 g/ha, scored visually after 3 weeks vs untreated controls
Method in brief: as §1

STEME [20] = experiment: Pre-emergence action against STEME; assay type: in vivo, Stellaria media; details: Dosage 320 g/ha, pre-emergence
Method in brief: as §1

CYPES [21] = experiment: Pre-emergence action against CYPES; assay type: in vivo, Cyperus esculentus; details: pre-emergence, dosage 320 g/ha, scored visually after 3 weeks vs untreated controls
Method in brief: as §1

AVEFA [22] = experiment: Post-emergence action against AVEFA; assay type: in vivo, Avena fatua; details: post-emergence, dosage 80 g/ha, visual assessment about 3 weeks after treatment vs untreated controls
Method in brief: as §3

Row | SMILES | Pre-emergence action against VERPE (VERPE) [%] | Pre-emergence action against POLCO (POLCO [1]) [%] | Pre-emergence action against ABUTH (herbicidal activity) (ABUTH [2]) [%] | Pre-emergence action against LOLRI (herbicidal activity) (LOLRI) [%] | Post-emergence action against PHBPU (PHBPU [3]) | Post-emergence action against ABUTH (herbicidal action in percent) (ABUTH [5]) [%] | Post-emergence action against AMARE (herbicidal action in percent) (AMARE [6]) [%] | Post-emergence action against ECHCG (herbicidal action in percent) (ECHCG [7]) [%] | Post-emergence action against STEME (STEME [8]) | Pre-emergence action against AVEFA (herbicidal activity) (AVEFA [9]) [%] | Pre-emergence action against VIOTR (VIOTR [10]) [%] | Pre-emergence action against ALOMY (herbicidal activity in percent) (ALOMY) [%] | Pre-emergence action against PHBPU (PHBPU [11]) [%] | Pre-emergence action against ECHCG (herbicidal activity) (ECHCG [12]) [%] | Post-emergence action against VIOTR (VIOTR [13]) | Post-emergence action against MATIN (herbicidal action in percent) (MATIN [14]) [%] | Post-emergence action against SETVI (herbicidal action in percent) (SETVI [15]) [%] | Pre-emergence action against HORMU (HORMU) [%] | Pre-emergence action against MATIN (MATIN [16]) [%] | SETVI (Table B8, pre-emergence herbicidal activity) (SETVI [17]) [%] | further results
1 | CCn1nnnc1NC(=O)c1ccc(C(F)F)c(C(C)=O)c1Cl [2-164] | 100 | 100 | 100 | 80 | 100 | 100 | 100 | 100 | 100 | 90 | 100 | 100 | 90 | 100 | 100 | 100 | 100 | 80 | 100 | 100 | Post-emergence action against POLCO (POLCO [4]): 80; Post-emergence action against CYPES (herbicidal action in percent) (CYPES [18]): 90%; Pre-emergence action against AMARE (herbicidal activity) (AMARE [19]): 100%; Pre-emergence action against STEME (STEME [20]): 100%; Pre-emergence action against CYPES (herbicidal activity) (CYPES [21]): 100%
2 | CCCn1nnnc1NC(=O)c1ccc(C(F)F)c(C(=O)C2CC2)c1Cl [3-168] | 100 | 80 | 100 | 100 | 100 | 100 | 100 | 100 | 100 | 100 | 100 | 100 | 100 | 100 | 100 | 100 | 100 | 90 | 100 | 100 | Post-emergence action against CYPES (herbicidal action in percent) (CYPES [18]): 90%; Pre-emergence action against AMARE (herbicidal activity) (AMARE [19]): 100%; Pre-emergence action against STEME (STEME [20]): 100%; Post-emergence action against AVEFA (herbicidal action in percent) (AVEFA [22]): 90%
